In brackets after ≈: the same amount, converted by molar mass.
Assays:
[1] = target: T1, Arachidonate 5-lipoxygenase-activating protein (Homo sapiens) (UniProt P20292); assay: (§1) Inhibition of FLAP in human whole blood assessed as reduction in calcium ionophore-stimulated LTB4 production preincubated for 30 mins followed by calcium ionophore stimulation and measured after 20 mins by EIA; format: tissue-based
T1 sequence (whole entry): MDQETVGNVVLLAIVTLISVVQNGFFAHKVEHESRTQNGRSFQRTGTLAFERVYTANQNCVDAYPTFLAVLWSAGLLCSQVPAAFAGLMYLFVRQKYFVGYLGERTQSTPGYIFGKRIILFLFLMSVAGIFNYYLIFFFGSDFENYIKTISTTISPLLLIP

[2] = target: T2, Arachidonate 5-lipoxygenase-activating protein (Homo sapiens, UniProt P20292); assay: as §1; format: tissue-based
T2 sequence (P20292 whole entry): T1 sequence (whole entry)

[3] = target: T2, Arachidonate 5-lipoxygenase-activating protein; assay: Inhibition of [3H]MK0591 binding to human FLAP expressed in […] cell membranes measured after 60 to 80 mins by scintillation counting method
[4] = Bioavailability in po dosed Sprague-Dawley rat; format: ADME, organism-based; settings: in vivo
[5] = Half-life in po or iv dosed Sprague-Dawley rat; format: ADME, organism-based; settings: in vivo
[6] = Metabolic stability in human hepatocytes assessed as parent compound remaining; format: ADME, cell-based, Hepatocyte
[7] = Clearance in po or iv dosed Sprague-Dawley rat; format: ADME, organism-based; settings: in vivo
[8] = Protein binding in human plasma assessed as unbound fraction by LC-MS based equilibrium dialysis analysis; format: ADME, cell-free
[9] = Volume of distribution at steady state in po or iv dosed Sprague-Dawley rat; format: ADME, organism-based; settings: in vivo, read-out: Vdss
[10] = Protein binding in Sprague-Dawley rat plasma assessed as unbound fraction by LC-MS based equilibrium dialysis analysis; format: ADME, cell-free
[11] = Intrinsic clearance in cryopreserved human hepatocytes assessed as per million cells at 1 uM measured up to 60 mins by LC-MS/MS analysis; format: ADME, cell-based, Hepatocyte; settings: read-out: CLH
[12] = Distribution coefficient between octanol and sodium phosphate buffer, logD of the compound in pH 7.4 buffer by LC-MS/MS-based shake flask method
Cytochrome P450 2C9 = Cytochrome P450 2C9 (Homo sapiens, UniProt P11712); assay: Inhibition of recombinant human CYP2C9 expressed in Escherichia coli assessed as maximum reduction in metabolite formation using coumarin based substrate by fluorescence assay; format: ADME
[13] = Apparent permeability across apical to basolateral side in human Caco2 cells; settings: Caco-2
physchem = settings: phosphate buffer, pH 7.4
Description: Aqueous solubility in pH 7.4 phosphate buffer after 24 hrs by UPLC/MS/MS analysis

hERG (KCNH2) = hERG (KCNH2) (Homo sapiens, UniProt Q12809); assay: Inhibition of human ERG at 10 uM high-throughput electrophysiology assay relative to control
[14] = target: Voltage-gated inwardly rectifying potassium channel KCNH2 (Homo sapiens, UniProt Q12809); assay: Inhibition of human ERG by high-throughput electrophysiology assay
Cytochrome P450 3A4 = Cytochrome P450 3A4 (Homo sapiens, UniProt P08684); assay: Inhibition of recombinant human CYP3A4 expressed in Escherichia coli assessed as maximum reduction in metabolite formation using coumarin based substrate by fluorescence assay
[15] = target: T2, Arachidonate 5-lipoxygenase-activating protein; assay: (§2) Inhibition of FLAP in human whole blood assessed as reduction in calcium ionophore-stimulated LTB4 production preincubated for 4 hrs followed by calcium ionophore stimulation and measured after 20 mins by EIA; format: tissue-based
[16] = target: T1, Arachidonate 5-lipoxygenase-activating protein (Homo sapiens); assay: as §2; format: tissue-based
CYP450 = CYP450 (Homo sapiens, UniProt P04798+P05177+P05181+P08684+P10632+P10635+P11509+P11712+P13584+P20813+P20815+P20853+P24462+P24903+P33260+P33261+P51589+P78329+P98187+Q02928+Q08477+Q16678+Q16696+Q5TCH4+Q6VVX0+Q7Z449+Q8TAV3+Q96SQ9+Q9HB55); assay: Inhibition of CYP450 assessed as maximum reduction in metabolite formation using coumarin based substrate by fluorescence assay; format: ADME, protein assay; settings: probe coumarin based substrate

Voltage-gated inwardly rectifying potassium channel KCNH2, sequence (Q12809 whole entry): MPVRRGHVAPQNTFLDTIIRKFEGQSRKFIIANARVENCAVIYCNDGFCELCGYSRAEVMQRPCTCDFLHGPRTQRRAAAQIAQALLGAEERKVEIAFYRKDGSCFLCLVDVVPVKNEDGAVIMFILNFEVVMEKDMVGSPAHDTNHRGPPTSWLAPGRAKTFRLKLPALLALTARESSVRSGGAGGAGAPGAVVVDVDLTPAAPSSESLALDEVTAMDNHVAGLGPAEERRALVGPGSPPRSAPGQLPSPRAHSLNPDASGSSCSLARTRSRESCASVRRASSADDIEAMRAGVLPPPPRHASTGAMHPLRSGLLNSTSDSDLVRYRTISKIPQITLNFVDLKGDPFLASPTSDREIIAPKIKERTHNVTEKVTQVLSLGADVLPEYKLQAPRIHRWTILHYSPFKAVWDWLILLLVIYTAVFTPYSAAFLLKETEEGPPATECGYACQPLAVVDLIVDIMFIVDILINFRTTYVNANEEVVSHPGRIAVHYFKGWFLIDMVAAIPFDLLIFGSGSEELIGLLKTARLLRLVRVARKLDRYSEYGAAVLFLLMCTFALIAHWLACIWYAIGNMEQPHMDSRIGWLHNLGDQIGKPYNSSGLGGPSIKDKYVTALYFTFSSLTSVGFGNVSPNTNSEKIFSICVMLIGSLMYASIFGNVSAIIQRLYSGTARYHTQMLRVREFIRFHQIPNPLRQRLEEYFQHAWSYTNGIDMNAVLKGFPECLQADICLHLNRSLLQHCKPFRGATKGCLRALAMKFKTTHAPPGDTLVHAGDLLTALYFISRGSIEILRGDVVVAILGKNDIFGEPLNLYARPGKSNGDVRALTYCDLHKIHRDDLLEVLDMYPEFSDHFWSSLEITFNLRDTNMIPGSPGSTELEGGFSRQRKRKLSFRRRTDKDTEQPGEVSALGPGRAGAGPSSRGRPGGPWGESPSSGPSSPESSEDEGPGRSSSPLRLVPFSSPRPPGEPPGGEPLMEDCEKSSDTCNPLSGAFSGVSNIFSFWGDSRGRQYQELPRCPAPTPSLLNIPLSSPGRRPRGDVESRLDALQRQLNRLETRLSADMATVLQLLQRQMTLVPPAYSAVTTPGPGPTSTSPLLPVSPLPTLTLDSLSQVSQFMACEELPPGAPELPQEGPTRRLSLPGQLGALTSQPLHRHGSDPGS
Cytochrome P450 2C9, sequence (P11712 whole entry): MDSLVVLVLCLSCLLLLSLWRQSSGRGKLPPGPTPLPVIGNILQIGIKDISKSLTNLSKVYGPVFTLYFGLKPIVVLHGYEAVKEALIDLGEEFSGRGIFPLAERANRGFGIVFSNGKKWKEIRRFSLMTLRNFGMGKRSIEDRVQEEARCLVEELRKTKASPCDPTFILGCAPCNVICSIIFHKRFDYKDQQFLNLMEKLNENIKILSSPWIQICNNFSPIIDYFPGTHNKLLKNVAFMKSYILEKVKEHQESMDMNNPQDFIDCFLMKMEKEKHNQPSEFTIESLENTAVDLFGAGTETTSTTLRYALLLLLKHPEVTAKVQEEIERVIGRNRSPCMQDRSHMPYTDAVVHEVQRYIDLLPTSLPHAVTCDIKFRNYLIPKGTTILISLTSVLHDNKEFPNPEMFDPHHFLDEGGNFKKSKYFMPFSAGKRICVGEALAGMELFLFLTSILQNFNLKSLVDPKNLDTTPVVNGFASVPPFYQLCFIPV
Cytochrome P450 3A4, sequence (P08684 whole entry): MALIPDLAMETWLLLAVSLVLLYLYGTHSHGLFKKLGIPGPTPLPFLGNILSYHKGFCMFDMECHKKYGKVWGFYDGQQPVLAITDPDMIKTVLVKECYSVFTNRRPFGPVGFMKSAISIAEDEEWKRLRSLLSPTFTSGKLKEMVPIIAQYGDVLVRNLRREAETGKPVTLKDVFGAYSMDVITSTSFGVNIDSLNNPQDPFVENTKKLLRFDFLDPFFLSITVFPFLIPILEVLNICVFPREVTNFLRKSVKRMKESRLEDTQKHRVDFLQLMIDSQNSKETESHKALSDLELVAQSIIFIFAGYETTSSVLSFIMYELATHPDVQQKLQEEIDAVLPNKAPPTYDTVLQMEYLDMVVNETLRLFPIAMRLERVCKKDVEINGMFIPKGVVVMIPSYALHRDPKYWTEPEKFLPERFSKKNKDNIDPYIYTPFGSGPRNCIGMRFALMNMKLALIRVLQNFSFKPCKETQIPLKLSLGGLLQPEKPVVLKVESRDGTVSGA
hERG (KCNH2), sequence (Q12809 whole entry): as the sequence (Q12809 whole entry) above

fpIC50 [1]	IC50 [2] [nM]	IC50 [3] [nM]	hepatocyte CLint at 1 µM [11] [µL/min/1e6 cells]	logD [12]	Papp A→B [13] [×10⁻⁶ cm/s]	solubility at 24 h (physchem) [µM]	Compound	further results
7.1	–	–	–	–	–	–	Cc1nn(C)cc1NC(=O)[C@@H]1CCCC[C@H]1C(=O)c1ccc(-c2cc[nH]n2)cc1 (racemic) [listing 1 of 2 here]	–
–	200	50.1	–	–	–	–	Cc1nn(C)cc1NC(=O)[C@@H]1CCCC[C@H]1C(=O)c1ccc(-c2cc[nH]n2)cc1 [listing 1 of 2 here]	–
8.5	50.1	25.1	12	–	–	–	Cn1cc(NC(=O)[C@@H]2CCCC[C@H]2C(=O)c2ccc(-c3cc[nH]n3)cc2)c(C(F)(F)F)n1	bioavailability [4]: 62%; half-life [5]: 1.6 h; Stability [6]: 62%; clearance [7]: 6.8 mL/min/kg; fraction unbound [8]: 0.063; Vd [9]: 1 L/kg; fraction unbound [10]: 0.054
–	–	1000	–	3.1	–	–	Cc1c[nH]nc1-c1ccc(C(=O)[C@@H]2CCCC[C@H]2C(=O)Nc2cn(C)nc2C)cc1 (racemic)	–
5.1	31600	25100	–	2.5	–	–	Cc1nn(C)cc1NC(=O)[C@@H]1CCCC[C@H]1C(=O)c1ccc(-c2ccnn2C)cc1 (racemic)	–
7.4	–	–	–	–	–	–	Cc1nn(C)cc1NC(=O)[C@@H]1CCCC[C@H]1C(=O)c1ccc(-c2cc[nH]n2)cc1 [listing 2 of 2 here]	–
8.4	50.1	39.8	7	3.6	59	80 (≈ 35.6 µg/mL)	Cn1ncc(NC(=O)[C@@H]2CCCC[C@H]2C(=O)c2ccc(-c3cc[nH]n3)cc2)c1C(F)(F)F	IC50 (Cytochrome P450 2C9): 6310 nM; bioavailability [4]: 100%; half-life [5]: 3 h; Stability [6]: 83%; clearance [7]: 4.8 mL/min/kg; fraction unbound [8]: 0.075; Vd [9]: 0.97 L/kg; fraction unbound [10]: 0.042; inhibition at 10 µM (hERG (KCNH2)): 32%
8.5	–	–	–	–	–	–	Cn1cc(NC(=O)[C@@H]2CCCC[C@H]2C(=O)c2ccc(-c3cc[nH]n3)cc2)c(OC(F)F)n1	–
–	–	–	12	3.1	22	60 (≈ 26.1 µg/mL)	Cc1cc(-c2ccc(C(=O)[C@@H]3CCCC[C@H]3C(=O)Nc3cn(C)nc3C(N)=O)cc2)n[nH]1	IC50 (Cytochrome P450 2C9): 10000 nM; bioavailability [4]: 40%; half-life [5]: 1.4 h; Stability [6]: 79%; clearance [7]: 5.5 mL/min/kg; fraction unbound [8]: 0.076; Vd [9]: 0.64 L/kg; fraction unbound [10]: 0.024; IC50 [14]: > 31600 nM
8.3	–	–	18	3.5	17	31 (≈ 14 µg/mL)	Cc1cc(-c2ccc(C(=O)[C@@H]3CCCC[C@H]3C(=O)Nc3cn(C)nc3C(N)=O)c(F)c2)[nH]n1	IC50 [14]: > 31600 nM; IC50 (Cytochrome P450 3A4): 6310 nM
6.7	2510	251	–	3	–	–	O=C(NCCc1ccccn1)[C@@H]1CCCC[C@H]1C(=O)c1ccc(-c2cc[nH]n2)cc1	–
–	–	39.8	16	3.5	23	12 (≈ 5.51 µg/mL)	Cc1cc(-c2ccc3c([C@@H]4C[C@H]5C[C@H]5C[C@H]4C(=O)Nc4cn(C)nc4C(N)=O)noc3c2)n[nH]1	Stability [6]: 69%; IC50 [15]: 126 nM; fpIC50 [16]: 8.5; IC50 (Cytochrome P450 3A4): 3160 nM; inhibition at 10 µM (hERG (KCNH2)): 12%
6.8	2000	501	–	2.8	–	–	Cc1nn(C)cc1NC(=O)[C@@H]1CCCC[C@H]1C(=O)c1ccc(-c2ccccn2)cc1 (racemic)	–
–	501	200	6	–	–	–	Cc1noc(C)c1NC(=O)[C@@H]1CCCC[C@H]1C(=O)c1ccc(-c2cc[nH]n2)cc1 (racemic)	–
7.1	200	63.1	–	4	–	–	Cc1nn(C)cc1NC(=O)[C@@H]1[C@H]2CC[C@H](CC2)[C@H]1C(=O)c1ccc(-c2cc[nH]n2)cc1F (racemic)	–
–	–	63.1	–	2.1	–	–	CC(C)(CNC(=O)[C@@H]1CCCC[C@H]1C(=O)c1ccc(-c2cc[nH]n2)cc1)S(C)(=O)=O	IC50 [15]: 126 nM; fpIC50 [16]: 7.4

fpIC50 [1]	IC50 [2] [nM]	IC50 [3] [nM]	hepatocyte CLint at 1 µM [11] [µL/min/1e6 cells]	logD [12]	Papp A→B [13] [×10⁻⁶ cm/s]	solubility at 24 h (physchem) [µM]	Compound	further results
6.9	794	1000	–	3	–	–	Cc1cc(-c2cc[nH]n2)ccc1C(=O)[C@@H]1CCCC[C@H]1C(=O)Nc1cn(C)nc1C (racemic)	–
–	–	2510	–	3.9	–	–	CC(=O)c1cccc(-c2ccc(C(=O)[C@@H]3CCCC[C@H]3C(=O)Nc3c(C)noc3C)cc2)c1 (racemic)	–
–	501	79.4	< 4	2.6	26	92 (≈ 36 µg/mL)	Cc1nn(C)cc1NC(=O)[C@@H]1CCCC[C@H]1C(=O)c1ccc(-c2cc[nH]n2)cc1 (racemic) [listing 2 of 2 here]	IC50 (CYP450): > 20000 nM; IC50 [14]: > 12600 nM
–	–	1000	–	3.1	–	–	Cc1nn(C)cc1NC(=O)[C@@H]1CCCC[C@H]1C(=O)c1ccc(-c2ccc[nH]2)cc1 (racemic)	–
8	63.1	126	14	2.9	34	500 (≈ 205 µg/mL)	Cc1nn(C)cc1NC(=O)[C@@H]1CCCC[C@H]1C(=O)c1ccc(-c2cc[nH]n2)cc1F (racemic)	bioavailability [4]: 85%; half-life [5]: 1.2 h; clearance [7]: 13.3 mL/min/kg; fraction unbound [8]: 0.14; Vd [9]: 1.1 L/kg; fraction unbound [10]: 0.11; IC50 (CYP450): > 20000 nM; IC50 [14]: > 12600 nM
–	–	79.4	13	3.4	7	27 (≈ 12.1 µg/mL)	Cc1cc(-c2ccc3c([C@@H]4CCCC[C@H]4C(=O)Nc4cn(C)nc4C(N)=O)noc3c2)n[nH]1	IC50 (Cytochrome P450 2C9): 7940 nM; Stability [6]: 68%; IC50 [15]: 63.1 nM; fpIC50 [16]: 8.5; IC50 [14]: > 31600 nM
7.9	–	–	–	–	–	–	Cc1cc(-c2ccc(C(=O)[C@@H]3CCCC[C@H]3C(=O)Nc3cn(C)nc3C(N)=O)cc2)[nH]n1	–
8.5	50.1	12.6	12	3.7	59	63 (≈ 28.8 µg/mL)	Cn1ncc(NC(=O)[C@@H]2C[C@@H]3C[C@@H]3C[C@H]2C(=O)c2ccc(-c3cc[nH]n3)cc2)c1C(F)(F)F	IC50 (Cytochrome P450 2C9): 5010 nM; bioavailability [4]: 100%; half-life [5]: 1.4 h; clearance [7]: 9.8 mL/min/kg; fraction unbound [8]: 0.066; Vd [9]: 1.1 L/kg; fraction unbound [10]: 0.04
5.8	3980	1000	–	1.8	–	–	Cc1nn(C)cc1NC(=O)[C@@H]1CCCC[C@H]1C(=O)c1ccc(-c2cc[nH]n2)nc1 (racemic)	–
9.3	15.8	15.8	22	3.9	69	22 (≈ 8.92 µg/mL)	COc1cc(NC(=O)[C@@H]2CCCC[C@H]2C(=O)c2ccc(-c3cc[nH]n3)cc2)ncn1	IC50 (Cytochrome P450 2C9): 5010 nM; IC50 [14]: 12600 nM
9	25.1	12.6	13	3.7	57	27 (≈ 12.4 µg/mL)	Cn1cc(NC(=O)[C@@H]2C[C@@H]3C[C@@H]3C[C@H]2C(=O)c2ccc(-c3cc[nH]n3)cc2)c(C(F)(F)F)n1	Stability [6]: 76%; IC50 (Cytochrome P450 3A4): 3980 nM
7.4	2000	316	–	3.6	–	–	Cc1cnn(-c2ccc(C(=O)[C@@H]3CCCC[C@H]3C(=O)Nc3cccc(C(N)=O)c3)cc2)c1 (racemic)	–
8.4	39.8	31.6	5	2.9	12	60 (≈ 24.9 µg/mL)	O=C(Nc1cnn2cccnc12)[C@@H]1CCCC[C@H]1C(=O)c1ccc(-c2cc[nH]n2)cc1	IC50 (CYP450): > 20000 nM; IC50 [14]: > 31600 nM
5.8	7940	2000	–	–	–	–	Cc1nn(C)cc1NC(=O)[C@H]1CCCC[C@@H]1C(=O)c1ccc(-c2cc[nH]n2)cc1	–
7.5	251	200	–	3	–	–	Cc1nn(C)cc1N(C)C(=O)[C@@H]1CCCC[C@H]1C(=O)c1ccc(-c2cc[nH]n2)cc1	–

Source: ChEMBL document CHEMBL4350955, “Novel Chemical Series of 5-Lipoxygenase-Activating Protein Inhibitors for Treatment of Coronary Artery Disease” (J Med Chem, 2019)
